The results in this text go back to patent EP0031653A1, “N-Substituted alpha-amino acids, processes for making them and pharmaceutical compositions containing them” (BEECHAM GROUP PLC, priority 1979, dated 1981).

Test [1] deals with normolipidaemic rats. As to the kind of experiment: Effects on serum lipids in vivo, rat Model A (Oxoid diet). Set-up: species or system Male Sprague-Dawley rats. To be noted: po, 168 h, compound at 0.1% of the diet (approximately 100 mg/kg/day), 7 days. The protocol: (§1) The compounds of the Examples above were tested for their effects on serum lipids in vivo using normolipidaemic rats.
(§2) Male Sprague-Dawley rats, 80-100 g, were randomised into groups of 8 after 5-7 days of feeding on the diet. The compounds were fed to the rats at a concentration of 0.1% of the powered diet (i.e. approximately 100 mg/kg/day), unless otherwise stated. The control groups were fed only the diet. At the end of the experiment, i.e. after 7 days, the rats were killed and their individual total serum cholesterol and triglyceride measured in mg/100 ml using a Technicon Autoanalyser. The high density lipoprotein (HDL)-cholesterol fraction, which was obtained from the serum by precipitation with heparin-manganous chloride, was only measured on "pooled" samples from each group.
(§3) The results are shown in Table 1 below. • ^+ Model A used an Oxoid diet. • Model B used a semi-synthetic diet rich in sucrose and cholesterol

Test [2] deals with normolipidaemic rats. The test can be described thus: Effects on serum lipids in vivo, rat Model B (semi-synthetic diet rich in sucrose and cholesterol). To be noted: compound at 0.1% of the diet (approximately 100 mg/kg/day), 7 days, * = significant at p<0.05. The arrangement: species or system Male Sprague-Dawley rats. Here is the method:
as §1, §2, §3

[3] abbreviates: * = significant at p<0.05, read-out: Percentage difference from control values in Total Serum cholesterol.
The mark [4] stands for this setting: * = significant at p<0.05, read-out: Percentage difference from control values in Total Serum triglyceride.

Molecules are shown by their SMILES. Read-outs that look alike come from different tables or passages of the source.

With `O=C(O)[C@H](Cc1ccccc1)NCc1cccc(C(F)(F)F)c1` [Example 5, N-(3-Trifluoromethylbenzyl)-L-phenylalanine], the change in vivo at 100 mg/kg/day in test [1] (setting [3]) is 47%; in test [1] (setting [4]), -41%.

On to `O=C(O)C(Cc1ccncc1)NCc1ccc(Cl)cc1` (racemic) [Example 12, DL-2-(4-Chlorobenzylamino)-3-(4-pyridyl)-propionic acid], for which, in test [2], the “Percentage difference from control values in Total Serum cholesterol” value is on record as -10% and the “Percentage difference from control values in Total Serum triglyceride” value is -10%.

For `O=C(O)C(Cc1ccc(Cl)cc1)NCc1ccc(Cl)cc1` (racemic) [Example 7, N-(4-Chlorobenzyl)-DL-4-chlorophenylalanine], the change in vivo at 100 mg/kg/day in test [1] (setting [3]) was 56%; in test [1] (setting [4]), -50%.

As to `O=C(O)C(CCc1ccccc1)NCc1ccc(Cl)cc1` (racemic) [Example 15, (DL)-2-(4-Chlorobenzylamino)-4-phenylbutyric acid], the change in vivo at 100 mg/kg/day in test [1] (setting [3]) was 68%; in test [1] (setting [4]), -11%.

`COC(=O)[C@H](Cc1ccccc1)NCc1ccc(Cl)cc1` [Example 18, N-(4-chlorobenzyl)-L-phenylalanine methyl ester]: the change in vivo at 100 mg/kg/day was 25% in test [1] (setting [3]) and -43% in test [1] (setting [4]).

With `O=C(O)C(Cc1c[nH]c2ccccc12)NCc1ccc(Cl)cc1` (racemic) [Example 14, N-4-Chlorobenzyl-DL-tryptophan], the change in vivo at 100 mg/kg/day in test [1] (setting [3]) was found to be 36%.

For the compound `O=C(O)[C@H](Cc1ccc(O)cc1)NCc1ccc(Cl)cc1` [Example 17, N-4-chlorobenzyl-tyrosine], the change in vivo at 100 mg/kg/day in test [1] (setting [4]) was -18%.

Turning to `O=C(O)[C@H](Cc1ccccc1)NCc1ccc2c(c1)OCO2` [Example 1, N-(3,4-methylenedioxybenzyl)-L-phenylalanine], the change in vivo at 100 mg/kg/day in test [1] (setting [4]) was -31%.

Take `O=C(O)[C@@H](Cc1ccccc1)NCc1ccc(Cl)cc1` [Example 3, N-(4-Chlorobenzyl)-D-phenylalanine]: in test [2], the “Percentage difference from control values in Total Serum cholesterol” value is “+49^* %” and the “Percentage difference from control values in Total Serum triglyceride” value was -67^* %.

Consider `O=C(O)[C@H](Cc1ccccc1)NCc1ccc(Br)cc1` [Example 4, N-(4-Bromobenzyl)-L-phenylalanine], for which the results for the change in vivo at 100 mg/kg/day in test [1] (setting [3]) and in test [1] (setting [4]) were 43% and -40%, respectively.

As for `O=C(O)C(Cc1ccccn1)NCc1ccc(Cl)cc1` (racemic) [Example 11, DL-2-(4-Chlorobenzylamino)-3-(2-pyridyl)-propionic acid], in test [2], the “Percentage difference from control values in Total Serum cholesterol” value is “+27^* %” and the “Percentage difference from control values in Total Serum triglyceride” value is “+27%”.

Consider `O=C(O)[C@H](Cc1ccccc1)NCc1ccc(Cl)cc1` [Example 2, N-(4-chlorobenzyl)-L-phenylalanine], for which the change in vivo at 100 mg/kg/day in test [1] (setting [3]) turned out to be 31%. For the same compound, in test [1] (setting [4]), the change in vivo at 100 mg/kg/day was -40%. Also, in test [2], the “Percentage difference from control values in Total Serum cholesterol” value is “+14%” and the “Percentage difference from control values in Total Serum triglyceride” value is given as -44^* %.

For `O=C(O)[C@H](CSCc1ccccc1)NCc1ccc(Cl)cc1` [Example 8, N-(4-Chlorobenzyl)-S-benzyl-L-cysteine], the change in vivo at 100 mg/kg/day in test [1] (setting [3]) was 52%; in test [1] (setting [4]), -35%.
